Patent publication US20050020643A1, “Pyridinyl amides and compositions thereof for use as fungicides” (priority 2002, published 2005)

Experiments:
Format in all cases: in vivo
Plasmopara viticola [1] = assay: Test G: curative control of grape downy mildew on grape seedlings (sprayed after inoculation); details: sprayed day after inoculation, rate not given
Plasmopara viticola [2] = assay: Test E: preventive control of grape downy mildew on grape seedlings; details: sprayed day before inoculation, rate not given
Phytophthora infestans [3] = assay: whole plant or invertebrate; details: for Test F disease control rating: 100 g/ha on potato seedlings, sprayed day after inoculation; for pest or weed control at 100 g/ha: Phytophthora infestans, in Solanum tuberosum, 120 h, read-out: Test F disease control rating
Puccinia recondita = assay: Test B: preventive control of wheat leaf rust on wheat seedlings; design: concentration or dose not given beside the values; details: sprayed day before inoculation, rate not given
Phytophthora infestans [4] = details: tomato (or potato) seedlings, sprayed day before inoculation; rate not given
[5] = test system: Erysiphe graminis f. sp. tritici; assay: Test A: preventive control of wheat powdery mildew on wheat seedlings; design: concentration or dose not given beside the values; details: sprayed day before inoculation, rated after 7 days, rate not given
Pyricularia oryzae = details: rice seedlings, sprayed day before inoculation; rate not given

SMILES	Test G disease control rating (Plasmopara viticola [1])	Test E disease control rating (Plasmopara viticola [2])	Test F disease control rating (Phytophthora infestans [3])	Test B disease control rating (Puccinia recondita)	Test D disease control rating (Phytophthora infestans [4])	Test A disease control rating [5]	pest or weed control at 100 g/ha (Phytophthora infestans [3])	Test C disease control rating (Pyricularia oryzae)
Cc1cc(Cl)c(C(=O)NC(C)c2ncc(Br)cc2Cl)c(Cl)n1 (centres unmarked) [Compound 13]	100%	100%	100%	68%	100%	0%	–	–
O=C(NCc1ncc(Br)cc1Cl)c1c(Cl)ccnc1Cl [Compound 9, N-[(5-bromo-3-chloro-2-pyridinyl)methyl]-2,4-dichloro-3-pyridinecarboxamide]	99%	88%	–	9%	100%	0%	99%	–
CC(NC(=O)c1c(Cl)ccnc1Cl)c1ncc(OC(F)F)cc1Cl (centres unmarked) [Compound 11]	100%	100%	93%	0%	100%	0%	–	–
Cc1cc(Cl)c(C(=O)NC(C)c2ncc(I)cc2Cl)c(Cl)n1 (centres unmarked) [Compound 15, N-[1-(3-chloro-5-iodo-2-pyridinyl)ethyl]-2,4-dichloro-6-methyl-3-pyridinecarboxamide]	100%	100%	–	0%	100%	0%	70%	–
Cc1cc(Cl)c(C(=O)NCc2ncc(Br)cc2Cl)c(Cl)n1 [Compound 14, N-[(5-bromo-3-chloro-2-pyridinyl)methyl]-2,4-dichloro-6-methyl-3-pyridinecarboxamide]	100%	100%	–	41%	100%	0%	98%	–
O=C(NCc1ncc(Cl)cc1Cl)c1c(Cl)ccnc1Cl [Compound 4, 2,4-Dichloro-N-[(3,5-dichloro-2-pyridinyl)methyl]-3-pyridinecarboxamide]	100%	70%	–	9%	100%	0%	100%	–
Cc1cc(Cl)c(C(=O)NCc2ncc(I)cc2Cl)c(Cl)n1 [Compound 16, N-[(3-chloro-5-iodo-2-pyridinyl)methyl]-2,4-dichloro-6-methyl-3-pyridinecarboxamide]	95%	100%	–	32%	100%	0%	83%	–
CC(NC(=O)c1c(Cl)ccnc1Cl)c1ncc(Br)cc1Cl (racemic) [Compound 2, N-[1-(5-bromo-3-chloro-2-pyridinyl)ethyl]-2,4-dichloro-3-pyridinecarboxamide]	100%	100%	–	19%	100%	0%	93%	0%
CC(NC(=O)c1c(Cl)ccnc1Cl)c1ncc(Cl)cc1Cl (racemic) [Compound 1, 2,4-Dichloro-N-[1-(3,5-dichloro-2-pyridinyl)ethyl]-3-pyridinecarboxamide]	100%	99%	–	38%	100%	0%	87%	0%
CC(NC(=O)c1c(Cl)ccnc1Cl)c1ncc(Br)cc1Br (centres unmarked) [Compound 7]	100%	100%	100%	45%	100%	0%	–	–
CC(NC(=O)c1c(Cl)ccnc1Cl)c1ncc(I)cc1Cl (centres unmarked) [Compound 3, N-[1-(3-chloro-5-iodo-2-pyridinyl)ethyl]-2,4-dichloro-3-pyridinecarboxamide]	100%	95%	–	19%	100%	0%	88%	–
O=C(NCc1ncc(Cl)cc1Br)c1c(Cl)ccnc1Cl [Compound 6]	99%	70%	100%	0%	100%	0%	–	–
O=C(NCc1ncc(Cl)cc1I)c1c(Cl)ccnc1Cl [Compound 8]	36%	100%	100%	0%	100%	0%	–	–
O=C(NCc1ncc(I)cc1Cl)c1c(Cl)ccnc1Cl [Compound 12, N-[(3-chloro-5-iodo-2-pyridinyl)methyl]-2,4-dichloro-3-pyridinecarboxamide]	63%	59%	–	0%	100%	0%	98%	–
CC(NC(=O)c1c(Cl)ccnc1Cl)c1ncc(F)cc1Cl (centres unmarked) [Compound 5]	99%	70%	100%	0%	100%	0%	–	–
